Test results published in paper PMC3712534 (The FEBS journal, 2013).

How the values were obtained:
RAW 264 macrophages = assay: Anti-phosphotyrosine; type: cell-based; details: 1 mM, 30 minutes; in the presence and absence of LPS
DUSP16 = molecular target: T1, DUSP16 (Homo sapiens, UniProt Q9BY84); assay: Inhibition of a panel of PTPs: DUSP16; type: biochemical
T1 sequence (Q9BY84 1-665): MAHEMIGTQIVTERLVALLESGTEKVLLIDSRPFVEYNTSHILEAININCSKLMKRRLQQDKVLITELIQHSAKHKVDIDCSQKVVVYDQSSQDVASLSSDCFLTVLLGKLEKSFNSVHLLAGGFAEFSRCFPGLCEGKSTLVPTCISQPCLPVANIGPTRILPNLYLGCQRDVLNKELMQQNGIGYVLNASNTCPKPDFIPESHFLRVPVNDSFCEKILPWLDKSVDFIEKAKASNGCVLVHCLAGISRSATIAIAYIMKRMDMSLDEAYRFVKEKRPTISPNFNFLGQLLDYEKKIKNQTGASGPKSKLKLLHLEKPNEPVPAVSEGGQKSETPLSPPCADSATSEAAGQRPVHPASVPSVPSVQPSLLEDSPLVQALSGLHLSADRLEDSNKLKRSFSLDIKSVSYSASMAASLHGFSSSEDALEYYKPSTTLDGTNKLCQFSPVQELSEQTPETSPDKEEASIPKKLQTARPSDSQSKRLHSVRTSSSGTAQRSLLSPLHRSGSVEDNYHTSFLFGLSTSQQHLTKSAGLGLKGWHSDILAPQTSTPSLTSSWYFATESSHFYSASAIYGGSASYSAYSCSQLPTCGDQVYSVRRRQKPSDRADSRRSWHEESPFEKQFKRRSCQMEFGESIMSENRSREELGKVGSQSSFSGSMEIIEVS

DUSP14 = molecular target: T2, DUSP14 (Homo sapiens, UniProt O95147); assay: Inhibition of a panel of PTPs: DUSP14; type: biochemical
T2 sequence (O95147 1-198): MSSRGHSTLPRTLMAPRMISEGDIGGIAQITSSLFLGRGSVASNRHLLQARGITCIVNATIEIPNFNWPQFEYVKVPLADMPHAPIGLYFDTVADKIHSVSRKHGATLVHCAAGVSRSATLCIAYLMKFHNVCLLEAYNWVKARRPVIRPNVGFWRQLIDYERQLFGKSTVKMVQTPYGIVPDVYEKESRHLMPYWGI

TC-PTP = molecular target: T3, TC-PTP (Homo sapiens, UniProt P17706); assay: Inhibition of a panel of PTPs: TC-PTP; type: biochemical
T3 sequence (P17706 1-415): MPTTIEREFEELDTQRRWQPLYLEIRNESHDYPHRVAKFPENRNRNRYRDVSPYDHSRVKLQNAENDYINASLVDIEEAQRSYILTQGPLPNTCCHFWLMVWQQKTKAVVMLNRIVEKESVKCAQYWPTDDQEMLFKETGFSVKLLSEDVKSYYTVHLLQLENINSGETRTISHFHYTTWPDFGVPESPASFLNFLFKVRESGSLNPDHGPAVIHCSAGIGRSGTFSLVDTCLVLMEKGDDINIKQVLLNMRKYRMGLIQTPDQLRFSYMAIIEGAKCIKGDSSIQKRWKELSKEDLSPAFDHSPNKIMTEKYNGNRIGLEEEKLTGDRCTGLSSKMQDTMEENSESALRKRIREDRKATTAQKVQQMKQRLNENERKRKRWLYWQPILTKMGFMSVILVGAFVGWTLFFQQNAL

PTEN = PTEN (Homo sapiens, UniProt P60484); assay: Inhibition of a panel of PTPs: PTEN; type: biochemical
PTP-PEST = molecular target: T4, PTP-PEST (Homo sapiens, UniProt Q05209); assay: Inhibition of a panel of PTPs: PTP-PEST; type: biochemical
T4 sequence (Q05209 1-780): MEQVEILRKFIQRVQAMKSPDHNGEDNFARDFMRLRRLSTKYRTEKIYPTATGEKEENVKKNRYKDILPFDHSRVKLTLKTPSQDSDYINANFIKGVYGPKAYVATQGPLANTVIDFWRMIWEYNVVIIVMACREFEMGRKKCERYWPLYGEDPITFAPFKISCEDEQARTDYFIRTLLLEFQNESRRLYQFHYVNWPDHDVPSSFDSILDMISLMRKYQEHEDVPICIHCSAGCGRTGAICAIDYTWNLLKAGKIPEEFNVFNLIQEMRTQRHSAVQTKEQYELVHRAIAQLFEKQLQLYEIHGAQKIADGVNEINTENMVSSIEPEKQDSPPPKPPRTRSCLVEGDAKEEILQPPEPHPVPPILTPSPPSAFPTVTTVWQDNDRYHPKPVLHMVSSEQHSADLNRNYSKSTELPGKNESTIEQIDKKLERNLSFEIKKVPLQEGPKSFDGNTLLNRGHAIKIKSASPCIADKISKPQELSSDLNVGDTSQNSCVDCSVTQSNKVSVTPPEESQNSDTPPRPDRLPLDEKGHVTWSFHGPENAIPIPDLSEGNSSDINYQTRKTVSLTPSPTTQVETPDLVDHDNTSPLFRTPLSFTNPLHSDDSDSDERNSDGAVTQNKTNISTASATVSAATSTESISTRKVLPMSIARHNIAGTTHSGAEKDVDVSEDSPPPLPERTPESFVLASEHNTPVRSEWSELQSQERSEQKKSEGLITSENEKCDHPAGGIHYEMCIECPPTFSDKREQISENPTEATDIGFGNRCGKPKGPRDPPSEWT

DUSP10 = molecular target: T5, DUSP10 (Homo sapiens, UniProt Q9Y6W6); assay: Inhibition of a panel of PTPs: DUSP10; type: biochemical
T5 sequence (Q9Y6W6 1-482): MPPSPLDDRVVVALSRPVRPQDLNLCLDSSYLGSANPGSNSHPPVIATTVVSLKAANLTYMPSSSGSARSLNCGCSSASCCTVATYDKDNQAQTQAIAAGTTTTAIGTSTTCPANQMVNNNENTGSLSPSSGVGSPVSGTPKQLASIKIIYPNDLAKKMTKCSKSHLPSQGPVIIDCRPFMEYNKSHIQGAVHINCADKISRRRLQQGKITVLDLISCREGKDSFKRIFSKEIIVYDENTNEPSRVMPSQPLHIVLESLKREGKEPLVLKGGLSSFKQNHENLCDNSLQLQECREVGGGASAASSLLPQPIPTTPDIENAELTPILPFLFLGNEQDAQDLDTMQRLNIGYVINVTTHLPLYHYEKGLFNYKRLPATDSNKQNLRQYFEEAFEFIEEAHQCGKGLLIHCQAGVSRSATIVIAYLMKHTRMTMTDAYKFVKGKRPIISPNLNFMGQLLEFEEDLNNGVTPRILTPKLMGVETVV

PTP1B [1] = molecular target: T6, PTP1B (Homo sapiens, UniProt P18031); assay: Kinetics of time-dependent PTP1B inactivation, continuous DiFMUP assay; type: biochemical; details: catalase 0.5 μg/mL (1 unit per assay); PTP1B 5 nM; HEPES pH 7.0, 5 mM DTT
T6 sequence (P18031 1-405): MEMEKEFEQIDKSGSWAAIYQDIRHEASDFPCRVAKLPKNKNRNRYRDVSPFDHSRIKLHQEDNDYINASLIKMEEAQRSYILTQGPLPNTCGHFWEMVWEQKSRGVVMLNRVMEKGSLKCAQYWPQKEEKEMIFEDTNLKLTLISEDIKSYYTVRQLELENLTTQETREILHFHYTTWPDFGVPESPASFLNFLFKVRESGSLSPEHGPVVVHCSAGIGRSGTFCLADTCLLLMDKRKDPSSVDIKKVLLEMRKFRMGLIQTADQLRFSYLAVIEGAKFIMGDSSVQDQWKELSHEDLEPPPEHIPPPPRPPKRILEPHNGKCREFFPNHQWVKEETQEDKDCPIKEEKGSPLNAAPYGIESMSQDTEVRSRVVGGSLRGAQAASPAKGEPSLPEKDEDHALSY

LAR = LAR (Homo sapiens, UniProt P10586); assay: Inhibition of a panel of PTPs: LAR; type: biochemical
IKK family members = details: cited from earlier work
DUSP4 = molecular target: T7, DUSP4 (Homo sapiens, UniProt Q13115); assay: Inhibition of a panel of PTPs: DUSP4; type: biochemical
T7 sequence (Q13115 1-394): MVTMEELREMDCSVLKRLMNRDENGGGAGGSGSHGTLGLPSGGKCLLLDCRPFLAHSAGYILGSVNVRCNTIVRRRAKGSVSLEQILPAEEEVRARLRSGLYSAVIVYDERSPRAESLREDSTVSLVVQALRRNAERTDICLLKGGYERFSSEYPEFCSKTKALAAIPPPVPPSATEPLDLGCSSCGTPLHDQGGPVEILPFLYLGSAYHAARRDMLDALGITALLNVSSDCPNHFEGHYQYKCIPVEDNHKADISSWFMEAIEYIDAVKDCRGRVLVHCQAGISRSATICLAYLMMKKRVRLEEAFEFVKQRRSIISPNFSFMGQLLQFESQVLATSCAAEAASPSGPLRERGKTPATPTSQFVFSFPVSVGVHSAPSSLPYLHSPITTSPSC

PTP1B [2] = molecular target: T6, PTP1B; assay: Inhibition of a panel of PTPs: PTP1B phosphatase activity, DiFMUP substrate; type: biochemical
PTP-alpha = PTP-alpha (Homo sapiens, UniProt P18433); assay: Inhibition of a panel of PTPs: PTP-alpha; type: biochemical
PTP1B [3] = molecular target: T6, PTP1B; assay: Michaelis-Menten analysis of PTP1B with DiFMUP without and with inhibitor; type: biochemical; details: read-out: drop of maximum rate (Vmax) in the presence of inhibitor
PTP1B [4] = molecular target: T6, PTP1B; details: cited from earlier work

Chain of LAR (P10586 30-1907, species assumed): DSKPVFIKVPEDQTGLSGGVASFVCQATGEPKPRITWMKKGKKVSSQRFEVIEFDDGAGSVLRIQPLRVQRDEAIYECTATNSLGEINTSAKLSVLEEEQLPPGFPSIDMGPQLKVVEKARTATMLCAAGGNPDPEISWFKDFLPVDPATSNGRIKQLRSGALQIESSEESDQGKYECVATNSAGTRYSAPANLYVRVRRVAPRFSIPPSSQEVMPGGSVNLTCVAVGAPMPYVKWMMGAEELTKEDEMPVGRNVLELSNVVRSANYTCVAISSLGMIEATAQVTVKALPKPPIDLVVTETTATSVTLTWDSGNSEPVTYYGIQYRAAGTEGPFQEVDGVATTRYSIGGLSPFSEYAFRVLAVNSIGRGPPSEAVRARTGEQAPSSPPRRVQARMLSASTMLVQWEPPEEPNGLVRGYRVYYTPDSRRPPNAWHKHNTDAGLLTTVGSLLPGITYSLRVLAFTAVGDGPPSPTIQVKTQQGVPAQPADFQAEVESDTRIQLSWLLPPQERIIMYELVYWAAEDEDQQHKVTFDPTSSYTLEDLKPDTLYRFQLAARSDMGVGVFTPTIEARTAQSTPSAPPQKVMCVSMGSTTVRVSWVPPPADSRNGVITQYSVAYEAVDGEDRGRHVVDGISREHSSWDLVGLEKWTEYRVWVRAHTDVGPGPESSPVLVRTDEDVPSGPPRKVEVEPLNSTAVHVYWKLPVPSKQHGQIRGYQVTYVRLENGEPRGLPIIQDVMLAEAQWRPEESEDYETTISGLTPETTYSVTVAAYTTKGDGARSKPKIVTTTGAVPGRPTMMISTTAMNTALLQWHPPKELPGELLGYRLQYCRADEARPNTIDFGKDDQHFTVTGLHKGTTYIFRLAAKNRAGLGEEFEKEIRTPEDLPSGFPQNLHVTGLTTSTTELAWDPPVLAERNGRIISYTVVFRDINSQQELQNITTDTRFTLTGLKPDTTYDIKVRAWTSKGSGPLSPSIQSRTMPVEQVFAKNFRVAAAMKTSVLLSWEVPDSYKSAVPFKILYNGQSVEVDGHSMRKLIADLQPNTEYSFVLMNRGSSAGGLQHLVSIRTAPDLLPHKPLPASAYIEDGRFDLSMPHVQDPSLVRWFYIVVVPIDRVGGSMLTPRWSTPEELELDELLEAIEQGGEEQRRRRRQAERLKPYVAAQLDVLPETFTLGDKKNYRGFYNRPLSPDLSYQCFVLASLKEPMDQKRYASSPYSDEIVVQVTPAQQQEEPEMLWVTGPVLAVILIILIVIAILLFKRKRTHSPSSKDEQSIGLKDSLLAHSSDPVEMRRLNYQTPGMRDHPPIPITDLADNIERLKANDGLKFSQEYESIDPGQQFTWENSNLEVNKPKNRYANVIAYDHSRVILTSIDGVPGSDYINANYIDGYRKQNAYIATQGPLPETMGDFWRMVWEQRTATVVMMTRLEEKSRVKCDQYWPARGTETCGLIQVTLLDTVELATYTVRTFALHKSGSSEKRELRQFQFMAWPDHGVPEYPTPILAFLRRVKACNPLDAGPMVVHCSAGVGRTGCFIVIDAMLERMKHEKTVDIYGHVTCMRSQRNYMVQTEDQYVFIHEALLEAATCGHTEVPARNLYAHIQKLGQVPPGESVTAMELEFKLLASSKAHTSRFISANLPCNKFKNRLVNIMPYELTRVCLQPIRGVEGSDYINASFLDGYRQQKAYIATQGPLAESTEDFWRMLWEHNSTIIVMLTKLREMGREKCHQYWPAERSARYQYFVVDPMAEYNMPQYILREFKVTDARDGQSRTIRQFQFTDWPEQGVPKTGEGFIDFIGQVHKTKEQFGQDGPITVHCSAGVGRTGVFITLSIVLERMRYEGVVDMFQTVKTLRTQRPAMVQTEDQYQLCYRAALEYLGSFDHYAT
Chain of PTEN (P60484 whole entry, species assumed): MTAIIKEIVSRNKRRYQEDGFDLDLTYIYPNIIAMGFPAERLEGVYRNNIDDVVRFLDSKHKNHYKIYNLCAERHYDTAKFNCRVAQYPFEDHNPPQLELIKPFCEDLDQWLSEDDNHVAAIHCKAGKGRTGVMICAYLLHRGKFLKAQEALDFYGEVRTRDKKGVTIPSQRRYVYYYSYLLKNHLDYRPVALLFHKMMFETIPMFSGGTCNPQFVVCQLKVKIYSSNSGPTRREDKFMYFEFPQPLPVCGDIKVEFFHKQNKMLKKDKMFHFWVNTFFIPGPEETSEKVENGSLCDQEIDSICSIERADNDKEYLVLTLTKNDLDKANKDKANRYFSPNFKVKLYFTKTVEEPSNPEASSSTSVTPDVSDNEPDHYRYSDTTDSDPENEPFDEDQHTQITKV
Chain of PTP-alpha (P18433 20-802): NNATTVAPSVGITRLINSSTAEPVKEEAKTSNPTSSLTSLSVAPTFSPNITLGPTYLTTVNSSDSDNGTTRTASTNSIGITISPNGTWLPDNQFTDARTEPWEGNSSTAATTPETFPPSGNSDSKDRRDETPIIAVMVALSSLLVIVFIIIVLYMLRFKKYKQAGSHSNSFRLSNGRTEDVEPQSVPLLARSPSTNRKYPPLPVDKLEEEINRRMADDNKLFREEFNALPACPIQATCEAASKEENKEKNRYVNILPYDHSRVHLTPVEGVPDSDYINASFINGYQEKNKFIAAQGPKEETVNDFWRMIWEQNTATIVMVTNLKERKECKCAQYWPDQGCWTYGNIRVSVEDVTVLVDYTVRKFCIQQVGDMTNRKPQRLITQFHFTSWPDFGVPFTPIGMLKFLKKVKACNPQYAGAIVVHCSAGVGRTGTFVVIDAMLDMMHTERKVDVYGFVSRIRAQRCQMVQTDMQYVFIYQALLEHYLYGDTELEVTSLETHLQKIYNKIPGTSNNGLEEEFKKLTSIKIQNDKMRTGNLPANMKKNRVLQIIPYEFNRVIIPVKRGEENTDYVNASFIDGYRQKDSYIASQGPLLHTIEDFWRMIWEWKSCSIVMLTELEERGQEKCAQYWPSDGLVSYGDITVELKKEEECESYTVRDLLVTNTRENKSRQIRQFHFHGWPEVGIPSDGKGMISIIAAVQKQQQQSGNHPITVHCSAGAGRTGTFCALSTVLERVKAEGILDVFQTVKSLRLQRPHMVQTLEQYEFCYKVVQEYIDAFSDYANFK

[Na+].[Na+].[Na+].[O]=[V]([O-])([O-])[O-] [sodium orthovanadate]
extent of tyrosine phosphorylation (anti-pTyr immunoblot) (RAW 264 macrophages): enhanced

Cc1ccc(S(=O)(=O)/C=C/C#N)cc1 [BAY 11-7082]
Ki (DUSP16): 125 µM
Ki (DUSP14): 180 µM
Ki (TC-PTP): 1.5 µM
Ki (PTEN): 100 µM
Ki (PTP-PEST): 0.9 µM
Ki (DUSP10): 150 µM
rate of inactivation of PTP1B in the absence and presence of catalase (PTP1B [1]): the same
Ki (LAR): 2.5 µM
inhibition of IKK family members in vitro (IKK family members): does not inhibit
Ki (DUSP4): 140 µM
Ki (PTP1B [2]): 1 µM
Ki (PTP-alpha): 2.3 µM
inhibition at 2 µM (PTP1B [3]): ~50%

CC(C)(C)c1ccc(S(=O)(=O)/C=C/C#N)cc1 [BAY 11-7085]
Ki (DUSP16): 205 µM
Ki (DUSP14): 210 µM
Ki (TC-PTP): 39 µM
Ki (PTEN): 200 µM
Ki (PTP-PEST): 40 µM
Ki (DUSP10): 180 µM
Ki (LAR): 57 µM
Ki (DUSP4): 160 µM
Ki (PTP1B [2]): 36 µM
Ki (PTP-alpha): 45 µM

OO [H2O2, hydrogen peroxide]
rate of oxidation of the enzyme (PTP1B [4]): 10 M⁻¹ s⁻¹
